Experimental data published in PubChem BioAssay (NCI).
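GI50 is the concentration that inhibits growth by half. TGI: concentration producing complete growth inhibition.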

What was measured:
Assay in all cases: NCI-60 cell line screen, 384-well format
[1] = test system: HCC-2998 colon
[2] = test system: NCI-H23 lung
[3] = test system: HT29 colon
[4] = test system: HOP-62 NSCLC
[5] = test system: OVCAR-4 ovarian
[6] = test system: OVCAR-8 ovarian
[7] = test system: SR leukemia
[8] = test system: RPMI-8226 leukemia
[9] = test system: HCT-15 colon
[10] = test system: LOX IMVI melanoma
[11] = test system: NCI-H226 lung
[12] = test system: DU-145 prostate
[13] = test system: NCI/ADR-RES ovarian
[14] = test system: SF-539 CNS
[15] = test system: HS 578T breast
[16] = test system: RXF 393 renal
[17] = test system: NCI-H460 NSCLC
[18] = test system: UACC-62 melanoma
[19] = test system: NCI-H522 lung
[20] = test system: T-47D breast
[21] = test system: HOP-92 NSCLC
[22] = test system: A498 renal
[23] = test system: TK-10 renal
[24] = test system: MOLT-4 leukemia
[25] = test system: EKVX NSCLC
[26] = test system: BT-549 breast
[27] = test system: MDA-MB-231 breast
[28] = test system: IGROV1 ovarian
[29] = test system: MDA-MB-435 melanoma
[30] = test system: SK-MEL-28 melanoma
[31] = test system: KM12 colon
[32] = test system: M14 melanoma
[33] = test system: NCI-H322M lung
[34] = test system: MALME-3M melanoma
[35] = test system: SF-295 CNS
[36] = test system: HCT-116 colon
[37] = test system: UACC-257 melanoma
[38] = test system: MCF7 breast
[39] = test system: HL-60(TB) leukemia
[40] = test system: SK-OV-3 ovarian
[41] = test system: OVCAR-3 ovarian
[42] = test system: U251 glioblastoma
[43] = test system: OVCAR-5 ovarian
[44] = test system: COLO 205 colon
[45] = test system: ACHN renal
[46] = test system: A549 NSCLC
[47] = test system: SNB-75 CNS
[48] = test system: PC-3 prostate
[49] = test system: SNB-19 CNS
[50] = test system: SF-268 CNS
[51] = test system: SK-MEL-5 melanoma
[52] = test system: SN12C renal
[53] = test system: CAKI-1 renal
[54] = test system: MDA-MB-468 breast

## Cn1ncc(Cl)c1-c1cc(C(=O)N[C@H](CN)Cc2ccc(F)c(F)c2)oc1Cl
[1]
  GI50: 0.772 µM
  TGI: 2.21 µM
[2]
  GI50: 2.7 µM
  TGI: 11.1 µM
[3]
  GI50: 1.03 µM
  TGI: 7.49 µM
[4]
  GI50: 3.01 µM
  TGI: 10.9 µM
[5]
  GI50: 6.6 µM
  TGI: 19.1 µM
[6]
  GI50: 3.31 µM
  TGI: 15.6 µM
[7]
  GI50: 0.517 µM
  TGI: 1.86 µM
[8]
  GI50: 1.54 µM
  TGI: 2.99 µM
[9]
  GI50: 0.702 µM
  TGI: 13.4 µM
[10]
  GI50: 1.94 µM
  TGI: 3.95 µM
[11]
  GI50: 2.54 µM
  TGI: 8.16 µM
[12]
  GI50: 3.72 µM
  TGI: 16.4 µM
[13]
  GI50: 4.1 µM
  TGI: 16.3 µM
[14]
  GI50: 0.0794 µM
  TGI: 1.92 µM
[15]
  GI50: 0.711 µM
  TGI: 2.72 µM
[16]
  GI50: 0.386 µM
  TGI: 2.18 µM
[17]
  GI50: 0.0876 µM
  TGI: 2.18 µM
[18]
  GI50: 1.06 µM
  TGI: 2.31 µM
[19]
  GI50: 2.24 µM
  TGI: 7.94 µM
[20]
  GI50: 0.137 µM
  TGI: 5.55 µM
[21]
  GI50: 2.36 µM
  TGI: 11.2 µM
[22]
  GI50: 0.0257 µM
  TGI: 0.782 µM
[23]
  GI50: 0.569 µM
  TGI: 2.9 µM
[24]
  GI50: 0.06 µM
  TGI: 0.347 µM
[25]
  GI50: 2.07 µM
  TGI: 11 µM
[26]
  GI50: 0.586 µM
  TGI: 2.16 µM
[27]
  GI50: 7.04 µM
  TGI: 19.9 µM
[28]
  GI50: 0.0231 µM
  TGI: 0.178 µM
[29]
  GI50: 1.82 µM
  TGI: 6.67 µM
[30]
  GI50: 1.14 µM
  TGI: 2.45 µM
[31]
  GI50: 0.364 µM
  TGI: 2.82 µM
[32]
  GI50: 1.49 µM
  TGI: 2.91 µM
[33]
  GI50: 2.34 µM
  TGI: 13.9 µM
[34]
  GI50: 1.05 µM
  TGI: 2.24 µM
[35]
  GI50: 0.527 µM
  TGI: 2.3 µM
[36]
  GI50: 2.33 µM
  TGI: 10.5 µM
[37]
  GI50: 1.05 µM
  TGI: 2.24 µM
[38]
  GI50: 0.13 µM
  TGI: 1.8 µM
[39]
  GI50: 1.26 µM
  TGI: 2.55 µM
[40]
  GI50: 0.431 µM
  TGI: 8.2 µM
[41]
  GI50: 2.17 µM
  TGI: 14.1 µM
[42]
  GI50: 1.14 µM
  TGI: 3.97 µM
[43]
  GI50: 1.57 µM
  TGI: 4.56 µM
[44]
  GI50: 0.833 µM
  TGI: 2.71 µM
[45]
  GI50: 2.77 µM
  TGI: 14.9 µM
[46]
  GI50: 2.66 µM
  TGI: 13.9 µM
[47]
  GI50: 0.211 µM
  TGI: 2.29 µM
[48]
  GI50: 0.128 µM
  TGI: 2.16 µM
[49]
  GI50: 1.48 µM
  TGI: 14.9 µM
[50]
  GI50: 4.7 µM
  TGI: 16.9 µM
[51]
  GI50: 1.01 µM
  TGI: 2.18 µM
[52]
  GI50: 1.96 µM
  TGI: 11.1 µM
[53]
  GI50: 2.23 µM
  TGI: 12.1 µM
[54]
  GI50: 0.0719 µM
  TGI: 1.79 µM
